Laboratory results reported in patent US4508645A, “Analogs of neurohypophysial hormones with inhibition effects” (Ceskoslovenska akademie ved, priority 1982, dated 1985).

Tests used:
uterus in vitro = assay: uterotonic efficiency in vitro, inhibition activity pA2; assay type: cell-based; conditions: pA2, negative logarithm of molar inhibitor concentration; decimal commas
Source text: (§1) Certain biological effects of the analogs of oxytocin and vasopressin are set forth in Table I. The inhibition effects of compounds in an in vitro test are expressed as values of pA2, which is the negative logarithm of the molar concentration of inhibitor. This reduces the response of 2X units of an agonistic compound to be equal to the response of 1X units in the absence of inhibitor (Schild, Brit. J. Pharmacol. 2, 189, 1947; Dyckes et al, J. Med. Chem. 17, 160, 1974). In an […] test (uterus in vitro), the value of pA2 corresponds with the negative logarithm of an inhibitor constant according to the relationship [formula] wherein B is the concentration of inhibitor (M), A50 is the concentration of agonistic compound leading to 50% of the maximum effect, and A50B is the concentration of agonistic compound leading to 50% of the maximum effect in the presence of inhibitor B (Eggena et al, J. Gen. Physiol. 52, 465, 1968).

pressor = pressor efficiency, inhibition activity pA2; assay type: in vivo; conditions: decimal commas
Source text: as §1

galactogogic = galactogogic efficiency, inhibition activity pA2; assay type: in vivo; conditions: for Inhibition activity pA2 in the determination of efficiency galactogogic: decimal commas
Source text: as §1

uterus in situ = assay: uterotonic efficiency in situ, inhibition activity pA2; assay type: in vivo; conditions: pA2, negative logarithm of inhibitor constant; decimal commas
Source text: as §1

Row | Compound | Inhibition activity pA2 in the determination of efficiency uterotonic in vitro (uterus in vitro) | Inhibition activity pA2 in the determination of efficiency pressor (pressor) | galactogogic agonistic activity (galactogogic; footnote b: agonistic activity, not pA2) | Inhibition activity pA2 in the determination of efficiency uterotonic in situ (uterus in situ) | Inhibition activity pA2 in the determination of efficiency galactogogic (galactogogic)
1 | CC[C@H](C)[C@@H]1NC(=O)[C@H](Cc2ccc(O)cc2)NC(=O)[C@@H](NC(C)=O)C(C)(C)SSC[C@@H](C(=O)N2CCC[C@H]2C(=O)N[C@@H](CC(C)C)C(=O)NCC(N)=O)NC(=O)[C@H](CC(N)=O)NC(=O)[C@H](CCC(N)=O)NC1=O [Ia, [1-N-acetylpenicilamine]oxytocin] | 4,4 | ineffective |  |  | 
2 | CC[C@H](C)[C@@H]1NC(=O)[C@H](Cc2ccc(OC)cc2)NC(=O)[C@@H](NC(C)=O)C(C)(C)SSC[C@@H](C(=O)N2CCC[C@H]2C(=O)N[C@@H](CC(C)C)C(=O)NCC(N)=O)NC(=O)[C@H](CC(N)=O)NC(=O)[C@H](CCC(N)=O)NC1=O [Ic, [1-N-acetylpenicilamine, 2-O-methyltyrosine]oxytocin] | 5,4 | 6,4 | 0,45 I.U./mg |  | 
3 | CC1(C)SSC[C@@H](C(=O)N2CCC[C@H]2C(=O)N[C@@H](CCCCN)C(=O)NCC(N)=O)NC(=O)[C@H](CC(N)=O)NC(=O)[C@H](CCC(N)=O)NC(=O)[C@H](Cc2ccccc2)NC(=O)[C@H](Cc2ccc(O)cc2)NC(=O)[C@H]1N [Id, [1-Penicilamine, 8-lysine]vasopressin] | 6,6 | 6,9 |  | 6,3 | 
4 | CC(=O)N[C@@H]1C(=O)N[C@@H](Cc2ccc(O)cc2)C(=O)N[C@@H](Cc2ccccc2)C(=O)N[C@@H](CCC(N)=O)C(=O)N[C@@H](CC(N)=O)C(=O)N[C@H](C(=O)N2CCC[C@H]2C(=O)N[C@@H](CCCCN)C(=O)NCC(N)=O)CSSC1(C)C [Ie, [1-N-Actylpenicilamine, 8-lysine]vasopressin] | 5,5 | ineffective |  | 6,3 | ineffective
5 | COc1ccc(C[C@@H]2NC(=O)[C@@H](N)C(C)(C)SSC[C@@H](C(=O)N3CCC[C@H]3C(=O)N[C@@H](CCCCN)C(=O)NCC(N)=O)NC(=O)[C@H](CC(N)=O)NC(=O)[C@H](CCC(N)=O)NC(=O)[C@H](Cc3ccccc3)NC2=O)cc1 [If, [1-Penicilamine, 2-O-methyltyrosine, 8-lysine]vasopressin] | 8,1 | 7,4 |  | 6,9 | 6,8
6 | COc1ccc(C[C@@H]2NC(=O)[C@@H](NC(C)=O)C(C)(C)SSC[C@@H](C(=O)N3CCC[C@H]3C(=O)N[C@@H](CCCCN)C(=O)NCC(N)=O)NC(=O)[C@H](CC(N)=O)NC(=O)[C@H](CCC(N)=O)NC(=O)[C@H](Cc3ccccc3)NC2=O)cc1 [Ig, [1-N-acetylpenicilamine, 2-O-methyltyrosine, 8-lysine]vasopressin] |  | 6,7 |  |  | ineffective
7 | CC1(C)SSC[C@H](N)C(=O)N[C@@H](Cc2ccc(O)cc2)C(=O)N[C@@H](Cc2ccccc2)C(=O)N[C@@H](CCC(N)=O)C(=O)N[C@@H](CC(N)=O)C(=O)N[C@@H]1C(=O)N1CCC[C@H]1C(=O)N[C@@H](CCCCN)C(=O)NCC(N)=O [Ih, [6-Penicilamine, 8-lysine]vasopressin] | 6,00 | 6,73 |  | 6,16 | 
8 | CC1(C)SSC(C)(C)[C@@H](C(=O)N2CCC[C@H]2C(=O)N[C@@H](CCCCN)C(=O)NCC(N)=O)NC(=O)[C@H](CC(N)=O)NC(=O)[C@H](CCC(N)=O)NC(=O)[C@H](Cc2ccccc2)NC(=O)[C@H](Cc2ccc(O)cc2)NC(=O)[C@H]1N [Ii, [1-Penicilamine, 6-penicilamine, 8-lysine]vasopressin] | 6,80 | 7,18 |  | 6,80 | 
9 | [1-Penicilamine, 2-O-methyltyrosine]oxytocin [Ib] | 8,0 | 7,2 |  | 6,9 | 6,8
